Patent US20080021002A1, “VITAMIN D COMPOUNDS USED TO STABILIZE KIDNEY TRANSPLANTS” (priority 2000, published 2008)

Legend:
Assay type in all cases: in vivo, rat
Smad 3 mRNA = assay: Semi-quantitative RT-PCR of renal grafts, Smad 3 mRNA; conditions: vs controls
Description: (§1) Semi-quantitative Reverse transcription polymerace chain reaction (RT-PCR): Following graft harvest a […] containing both cortex and medulla was snap frozen in liquid nitrogen. Semi-quantitative RT-PCR was performed as described. Little et al. Transplant Int. 12:393-401, 1999. Briefly, samples were homogenized then total RNA extracted with RNAzol B (Tel Test, Inc., Friendswood, Tex.) and reversed transcribed to cDNA according to manufacturer=s instructions (Superscript, Gibco BRL). PCR was performed over the linear range of amplification for both the gene of interest, e.g. TGFβ-1, and the ribosomal protein S26 as a control housekeeping gene. PCR conditions were chosen such that both products were amplified with similar efficiency. The following cycle parameters were employed: denaturing, 94° C. for 60 seconds; annealing, 61° C. for 60 seconds; and extension, 72° C. for 60 seconds. The amount of product was quantified using a phosphoimager (Storm 80) following gel electrophoresis and Vista green detection.

Smad 6 mRNA = assay: Semi-quantitative RT-PCR of renal grafts, Smad 6 mRNA
Text: FIG. 3 is a bar graph disclosing that 1,25-(OH)2D3 treated increases Smad 6 mRNA expression. Semi-quantitative RT-PCR was used to determine Smad mRNA express. PCR products were quantified on a phosphoimager and the level of Smad expression compared to that of a ribosomal housekeeping gene, S26. Results are expressed as the ratio to S26.
as §1

MMP 2 protein = assay: Antigen-capture ELISA of renal graft lysates, total MMP 2 protein; conditions: vs untreated allogeneic group (FIG. 5B); 1,25-(OH)2D3: syngeneic and allogeneic groups; CSA: allogeneic
Description: FIG. 5 is a set of graphs showing that 1,25-(OH)2D3 Treatment Alters MMP and TIMP Expression . […] S26 was used as the housekeeping gene. […] Fold changes are expressed relative to the allogeneic untreated control.
(§2) Enzyme Linked Immunoabsorbant Assay (ELISA): TGFβ-1 and MMP 2 levels were quantified by antigen-capture ELISA. […] After blocking with 1× block buffer at 37° C. for 35 minutes 25 ul of cell lysate (diluted 1:10 in the lysis buffer) was added to the wells. A standard curve was generated by performing two fold serial dilutions of the standard active TGFβ-1 antigen (diluted 15.6 pg/ml to 1000 pg/ml, Promega, Inc.) or MMP2 (0.5 ng/ml to 100 ng/ml, R and D Systems). The plate was incubated for 2 hours at RT with shaking and then washed extensively with wash buffer (0.05% Tween 20 in PBS) followed by PBS. The TGFβ-1 ELISA was then developed according to the manufacturer's instruction. For the MMP2 ELISA, biotinylated detection antibody, clone 101721 (25 μL/well at 1.4 ug/ml R and D Systems) was added and incubated at RT (1hour, with shaking). The antibody was biotinylated using a Mini-Biotin-XX Protein Labeling Kit (F-6347) according to manufacturer's instruction (Molecular Probes, Eugene Oreg.). […] Absorbance was measured at 450 nm on a Vmax Kinetic microplate reader (Molecular Devices, Sunnyvale Calif.). […]

bioactive TGFβ-1 [1] = assay: Antigen-capture ELISA of renal graft lysates, bioactive TGFβ-1; conditions: treated recipients vs untreated allogeneic control grafts
Description: as §2, with “Oreg.). Following further washing, avidin-peroxidase conjugate was added (25 ul/well at 1:5000) for 30 minutes at RT. A color reaction was developed by the addition of 25 ul of the TMB (3, 3′, 5, 5′-tetramethylbenzidine)/[…] substrate solution, (KPL, Gaithersberg, Md.).” for “Oreg.).”

bioactive TGFβ-1 [2] = assay: Immunohistochemistry of renal grafts for bioactive TGFβ-1
Description: FIGS. 6 (B) and (C) show immunohistochemistry for bioactive TGFβ-1 in two 1,25-(OH)2D3 treated grafts (1000 ng/rat/day). […] Magnification 200×.
Immunhistochemistry: Formalin fixed, paraffin embedded rat kidneys were sectioned to 4 microns. Sections were rewarmed on day of staining at 60° for 10 minutes, then deparaffinized in xylene for 30 minutes followed by rehydration. Sections were washed twice in distilled water and antigen retrieval performed. Briefly, section were soaked in 100 mM citrate buffer, pH=6.0 for 10 minutes at 90° C. and then heated to 115° C. or 20 minutes Sections were allowed to cool and then washed in PBS and blocked for 10 minutes with BIOCARE SUPER SNIPER9 (BS996L) followed by diluted primary TGFβ-1 antibody (1:150 (Promega Corp., Madison, Wis.; G1221) at 4° C. overnight. Slides were washed (3×5 minutes, PBS) and secondary antibody applied (1 hour at RT, MACHII BIOCARE goat anti-rabbit with polymer spacer; RHRP52OH, Walnut Creek, Calif.).
Slides were developed with Pierce=s Stable Peroxide buffer (cat #1855910) and Pierce=s Stable Metal enhanced DAB solution (cat #1856090).

C=C1/C(=C\C=C2/CCC[C@]3(C)[C@@H]([C@H](C)CCCC(C)(C)O)CC[C@@H]23)C[C@@H](O)C[C@@H]1O [calcitriol, 1,25-dihydroxyvitamin D3]
Smad 3 mRNA levels (Smad 3 mRNA): no significant change
Smad 6 mRNA expression (Smad 6 mRNA; allogeneic grafts, vs untreated allogeneic grafts (1,25-(OH)2D3 p=0.02)): significantly increased
Smad 6 mRNA expression (Smad 6 mRNA; syngeneic grafts, vs untreated allogeneic grafts, p=0.001): significantly increased
Total MMP 2 protein expression (MMP 2 protein): increased
Bioactive TGFβ-1 protein levels (bioactive TGFβ-1 [1]): no significant difference
Glomerular staining for bioactive TGFβ-1 (bioactive TGFβ-1 [2]; 1000 ng/rat/day (FIG. 6 legend)): significantly decreased
Bioactive TGFβ-1 staining in tubular areas (bioactive TGFβ-1 [2]; allogeneic grafts (FIG. 6)): extensive staining
Bioactive TGFβ-1 expression in glomeruli (bioactive TGFβ-1 [2]; treated grafts in contrast to untreated control grafts (FIG. 6)): little bioactive TFGβ-1 expression
